Patent publication US11365195B2, “Atypical inhibitors of monoamine transporters; method of making; and use thereof” (THE UNITED STATES OF AMERICA, AS REPRESENTED BY THE …, priority 2017, dated 2022)
Like-named read-outs stand apart in the source and are kept apart here.

Key:
DAT = target: T1, DAT (Rattus norvegicus, UniProt P23977); assay: DAT radioligand binding in rat striatum ([3H]-WIN35,428 competition); conditions: for SERT/DAT: ratio of SERT Ki to DAT Ki
T1 construct: 100 μl of tissue preparation (1.5 mg of brain striatum membranes per well); tissue Bioreclamation IVT (Hicksville, N.Y.); host or cells: male Sprague-Dawley rat brain striatum membranes
Experimental: (§1) Binding affinities of the analogue compounds were evaluated at the DAT and SERT in rat brain membranes, and sigma-1 in guinea pig brain membranes according to the following protocols.
DAT Radioligand Binding in Rat Striatum
The tissue was centrifuged at 20,000 rpm for 10 min at 4° C. The pellet was suspended in cold buffer and centrifuged again using the same settings. The resulting pellet was resuspended in cold buffer at a concentration of 15 mg/mL OWW (original wet weight). On test day, all test compounds were freshly dissolved in 30% DMSO and 70% H2O to a stock concentration of 1 mM or 100 μM When necessary, to assist the solubilization of compounds, 10 μl of glacial acetic acid was added along with the DMSO (in place of 10 μl final H2O volume). Each test compound was then diluted into 10 half-log serial dilutions using 30% DMSO vehicle. […] Non-specific binding was determined using […] Indatraline and total binding was determined with 30% DMSO vehicle. The reaction was started with the addition of the tissue. […] The filters were washed 3 times with 3 mL (3×1 mL/well) of ice cold binding buffer. […] These analyses were performed using GraphPad Prism version 6.00 for Macintosh (GraphPad Software, San Diego, Calif.).

SERT = target: T2, SERT (Rattus norvegicus, UniProt P31652); assay: SERT radioligand binding in rat midbrain ([3H]-Citalopram competition); conditions: rat midbrain/brain stem membranes, [3H]-Citalopram, mean ± SEM; read-out: SERT (rat mid-brain-stem) Ki ± SEM
T2 construct: 100 μl of tissue preparation (2 mg of brain stem membranes per well); tissue Bioreclamation IVT (Hicksville, N.Y.); host or cells: male Sprague-Dawley rat brain stem membranes
Experimental: as §1
SERT Radioligand Binding in Rat Midbrain
The tissue was centrifuged at 20,000 rpm for 10 min at 4° C. The pellet was suspended in cold buffer and centrifuged again using the same settings. The resulting pellet was resuspended in cold buffer at a concentration of 20 mg/mL OWW (original wet weight). On test day, all test compounds were freshly dissolved in 30% DMSO and 70% H2O to a stock concentration of 1 mM or 100 μM. When necessary, to assist the solubilization of compounds, 10 μl of glacial acetic acid was added along with the DMSO (in place of 10 μl final H2O volume). Each test compound was then diluted into 10 half-log serial dilutions using 30% DMSO vehicle. […] Non-specific binding was determined using […] Fluoxetine HCl and total binding was determined with 30% DMSO vehicle. The reaction was started with the addition of the tissue. All compound dilutions were tested in triplicate and the reaction incubated for 60 min at room temperature. The reaction was terminated by filtration through Perkin Elmer Uni-Filter-96 GF/B, presoaked for 60 min in 0.3% polyethylenimine, using a Brandel 96-Well Plates Harvester Manifold (Brandel Instruments, Gaithersburg, Md.). The filters were washed 3 times with 3 mL (3×1 mL/well) of ice cold binding buffer. […] These analyses were performed using GraphPad Prism version 6.00 for Macintosh (GraphPad Software, San Diego, Calif.).

σ1R = target: T3, σ1R (Cavia porcellus, UniProt Q60492); assay: σ1R radioligand binding in guinea pig cortex ([3H]-(+)-Pentazocine competition); conditions: for σ1/DAT: ratio of σ1 to DAT affinity values; for σ1/SERT: ratio of σ1 to SERT affinity values
T3 construct: tissue BioReclamation IVT (Hicksville, N.Y.); host or cells: male Hartley guinea pig brain cortex membranes
Experimental: as §1
σ1R Radioligand Binding in Guinea Pig Cortex
Male Hartley guinea pig cortices were dissected from freshly harvested brains (shipped cold in PBS buffer from BioReclamation IVT (Hicksville, N.Y.)) and frozen at −80° C. for future use. […] The supernatant was collected in a clean tube and the pellet re-suspended in 10 ml of cold buffer and centrifuged again (˜1,200 rpm) for 10 min at 4° C. […] The final pellet was suspended in ice-cold binding buffer at 50 mg/ml concentration. […] All test compounds were freshly dissolved in 30% DMSO and 70% H2O to a stock concentration of 1 mM or 100 μM. When necessary, to assist the solubilization of compounds, 10 μl of glacial acetic acid was added along with the DMSO (in place of 10 μl final H2O volume). Each test compound was then diluted into 10 half-log serial dilutions using 30% DMSO as the vehicle. […] Nonspecific binding was determined using either 10 μM PRE084 or 10 μM (+)-Pentazocine and total binding was determined with 30% DMSO vehicle (3% DMSO final concentration). […] The filters were washed 3 times with 3 ml (3×1 ml/well) of ice cold binding buffer.

[1] = Phase I metabolic stability in rat liver microsomes; assay type: in vitro ADME; conditions: for Phase I in Liver Microsomes, Negative Control: rat liver microsomes lacking NADPH; for Phase I in Liver Microsomes, Rat: with NADPH, 10 μM compound, 0.5 mg/mL microsomes; for stability to Phase I metabolism (in words): rat liver microsomes fortified with NADPH
Experimental: Methods: Phase I metabolic stability assays were conducted in rat liver microsomes. For phase I metabolism, the reactions were carried out with 100 mM potassium phosphate buffer, pH 7.4, in the presence of NADPH regenerating system (1.3 mM NADPH, 3.3 mM glucose 6-phosphate, 3.3 mM MgCl2, 0.4 U/mL glucose-6-phosphate dehydrogenase, […] sodium citrate). Reactions in triplicate were initiated by addition of the liver microsomes to the incubation mixture (compound final concentration was 10 μM; 0.5 mg/mL microsomes). Compound disappearance was monitored via LC/MS/MS. […] The total run time for each analyte was 5.0 min.

[2] = rat striatum membranes, [3H]-WIN35,428, mean ± SEM, read-out: DAT (rat striatum) Ki ± SEM

T1 sequence (P23977 whole entry): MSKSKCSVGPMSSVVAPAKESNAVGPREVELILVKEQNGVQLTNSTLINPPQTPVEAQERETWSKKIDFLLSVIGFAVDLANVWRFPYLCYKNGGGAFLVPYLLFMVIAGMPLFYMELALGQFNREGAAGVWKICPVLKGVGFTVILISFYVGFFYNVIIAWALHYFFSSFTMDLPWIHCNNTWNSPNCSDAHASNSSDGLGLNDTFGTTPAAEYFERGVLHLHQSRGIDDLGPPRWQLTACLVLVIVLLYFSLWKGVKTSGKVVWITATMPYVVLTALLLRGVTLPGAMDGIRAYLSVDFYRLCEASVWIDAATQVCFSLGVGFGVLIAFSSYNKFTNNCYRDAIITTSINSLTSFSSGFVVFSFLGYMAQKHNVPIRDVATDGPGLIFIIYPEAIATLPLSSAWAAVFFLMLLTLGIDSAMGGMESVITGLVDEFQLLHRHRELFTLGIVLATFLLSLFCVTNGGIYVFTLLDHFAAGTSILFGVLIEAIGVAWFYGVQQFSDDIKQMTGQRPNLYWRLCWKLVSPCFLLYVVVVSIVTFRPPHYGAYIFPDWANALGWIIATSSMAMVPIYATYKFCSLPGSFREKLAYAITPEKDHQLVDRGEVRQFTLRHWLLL
T3 sequence (Q60492 whole entry): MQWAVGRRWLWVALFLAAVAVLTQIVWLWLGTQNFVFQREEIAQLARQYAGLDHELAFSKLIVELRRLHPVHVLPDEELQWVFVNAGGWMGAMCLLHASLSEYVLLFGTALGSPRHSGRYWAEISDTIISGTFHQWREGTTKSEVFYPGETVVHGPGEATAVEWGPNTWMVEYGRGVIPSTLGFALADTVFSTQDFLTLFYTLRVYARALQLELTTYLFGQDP
T2 sequence (P31652 whole entry): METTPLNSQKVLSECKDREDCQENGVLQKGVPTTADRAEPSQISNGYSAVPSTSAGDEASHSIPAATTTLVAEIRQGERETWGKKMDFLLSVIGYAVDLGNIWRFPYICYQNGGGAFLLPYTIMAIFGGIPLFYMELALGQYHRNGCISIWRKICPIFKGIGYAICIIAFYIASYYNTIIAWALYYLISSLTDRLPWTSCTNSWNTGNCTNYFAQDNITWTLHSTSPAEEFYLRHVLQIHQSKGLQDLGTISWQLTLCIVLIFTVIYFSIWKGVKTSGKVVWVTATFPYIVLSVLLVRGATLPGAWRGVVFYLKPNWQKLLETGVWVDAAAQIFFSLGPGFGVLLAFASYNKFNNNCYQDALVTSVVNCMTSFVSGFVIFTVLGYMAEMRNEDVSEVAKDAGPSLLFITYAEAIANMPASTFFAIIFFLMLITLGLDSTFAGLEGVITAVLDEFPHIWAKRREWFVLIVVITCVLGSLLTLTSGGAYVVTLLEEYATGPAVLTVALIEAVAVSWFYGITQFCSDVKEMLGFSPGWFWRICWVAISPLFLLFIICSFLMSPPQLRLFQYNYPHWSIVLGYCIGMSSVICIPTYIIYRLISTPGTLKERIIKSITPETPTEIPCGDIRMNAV

| SMILES | Ki (DAT; [2]) | SERT/DAT (DAT) | Ki (SERT) | σ1/DAT (σ1R) | σ1/SERT (σ1R) | Phase I in Liver Microsomes, Negative Control ([1]; 0 min) | Phase I in Liver Microsomes, Rat ([1]; 0 min) | Phase I in Liver Microsomes, Rat ([1]; 30 min) | Phase I in Liver Microsomes, Negative Control ([1]; 60 min) | Phase I in Liver Microsomes, Rat ([1]; 60 min) | Ki (DAT) | stability to Phase I metabolism (in words) [1] | Phase I in Liver Microsomes, Negative Control ([1]; 30 min) | Kd (σ1R) |
| --- | --- | --- | --- | --- | --- | --- | --- | --- | --- | --- | --- | --- | --- | --- |
| Cl.Cl.OC(CNC1CCN(CCSC(c2ccc(F)cc2)c2ccc(F)cc2)CC1)Cc1ccccc1 (stereo not shown) [JBG01-061, 1-((1-(2-((Bis(4-fluorophenyl)methyl)thio)ethyl)piperidin-4-yl)amino)-3-phenylpropan-2-ol] | 47.7 ± 2.62 nM | 1.39 | 66.3 ± 2.81 nM | 1.84 | 1.33 | 100% | 100% | 83% | 109% | 69% | – | – | – | – |
| Cl.Cl.Fc1ccc(CN2CCC(NCCSC(c3ccc(F)cc3)c3ccc(F)cc3)CC2)cc1 [JBG01-077, N-(2-((Bis(4-fluorophenyl)methyl)thio)ethyl)-1-(4-fluorobenzyl)piperidin-4-amine] | 25.5 ± 6.95 nM | 10.86 | 277 ± 5.94 nM | 0.52 | 0.048 | 100% | 100% | 88% | 111% | 70% | – | – | – | – |
| O=C(c1ccc(F)cc1)N1CCC(NCCSC(c2ccc(F)cc2)c2ccc(F)cc2)CC1 [JBG02-028, (4-((2-((Bis(4-fluorophenyl)methyl)thio)ethyl)amino)piperidin-1-yl)(4-fluorophenyl)methanone] | – | 66.99 | 485 ± 32 nM | 4.43 | 0.066 | 100% | 100% | 40% | 101% | 24% | 7.24 ± 0.78 nM | susceptibility | – | – |
| Cl.Cl.[O-][S+](CCNC1CCN(Cc2ccc(F)cc2)CC1)C(c1ccc(F)cc1)c1ccc(F)cc1 (stereo not shown) [JBG02-054, N-(2-((Bis(4-fluorophenyl)methyl)sulfinyl)ethyl)-1-(4-fluorobenzyl)piperidin-4-amine] | 50.6 ± 11.2 nM | 7.31 | 370 ± 23.7 nM | 0.52 | 0.072 | 100% | 100% | 100% | 102% | 95% | – | – | 102% | – |
| Cl.O=C(c1ccc(F)cc1)N1CCC(NCC[S+]([O-])C(c2ccc(F)cc2)c2ccc(F)cc2)CC1 (stereo not shown) [JBG02-056, (4-((2-((Bis(4-fluorophenyl)methyl)sulfinyl)ethyl)amino)piperidin-1-yl)(4-fluorophenyl)methanone] | 77.2 ± 4.54 nM | 59.84 | 4620 ± 379 nM | 17.10 | 0.29 | 100% | 100% | 100% | 91% | 79% | – | – | 97% | 1320 ± 36.5 nM |
| [O-][S+](CCNC1CCN(CC(O)Cc2ccccc2)CC1)C(c1ccc(F)cc1)c1ccc(F)cc1 (stereo not shown) [JBG02-057, 1-(4-((2-((Bis(4-fluorophenyl)methyl)sulfinyl)ethyl)amino)piperidin-1-yl)-3-phenylpropan-2-ol] | 91.8 ± 21.3 nM | 6.48 | 595 ± 54.1 nM | 3.77 | 0.58 | 100% | 100% | 50% | 100% | 22% | – | susceptibility | 102% | 346 ± 27.1 nM |
| CC(C)(C)C(=O)N1CCC(NCC[S+]([O-])C(c2ccc(F)cc2)c2ccc(F)cc2)CC1 (stereo not shown) [JBG02-072, 1-(4-((2-((Bis(4-fluorophenyl)methyl)sulfinyl)ethyl)amino)piperidin-1-yl)-2,2-dimethylpropan-1-one] | 10200 ± 3610 nM | 3.14 | 32000 ± 6760 nM | 1.10 | – | – | – | – | – | – | – | – | – | – |
| CC(C)(C)CN1CCC(NCC[S+]([O-])C(c2ccc(F)cc2)c2ccc(F)cc2)CC1 (stereo not shown) [JBG02-074, N-(2-((Bis(4-fluorophenyl)methyl)sulfinyl)ethyl)-1-neopentylpiperidin-4-amine] | 431 ± 28.2 nM | 16.22 | 6990 ± 229 nM | 1.26 | – | – | – | – | – | – | – | – | – | – |
| Fc1ccc(C(SCCNC2CCN(CC3CC3)CC2)c2ccc(F)cc2)cc1 [JBG02-080, N-(2-((bis(4-fluorophenyl)methyl)thio)ethyl)-1-(cyclopropylmethyl)piperidin-4-amine] | 407 ± 65 nM | 3.93 | 1600 ± 164 nM | 0.66 | – | – | – | – | – | – | – | – | – | – |
| O=C(C1CC1)N1CCC(NCCSC(c2ccc(F)cc2)c2ccc(F)cc2)CC1 [JBG02-083, (4-((2-((bis(4-fluorophenyl)methyl)thio)ethyl)amino)piperidin-1-yl)(cyclopropyl)methanone] | 178 ± 35 nM | 5.67 | 1010 ± 94 nM | 0.26 | – | – | – | – | – | – | – | – | – | – |
| CC(O)CN1[C@H](C)CN(CCSC(c2ccc(F)cc2)c2ccc(F)cc2)C[C@@H]1C (stereo partly drawn) [RDS03-094, 1-((2S,6R)-4-(2-((Bis(4-fluorophenyl)methyl)thio)ethyl)-2,6-dimethylpiperazin-1-yl)propan-2-ol] | – | 629.79 | 14800 ± 2260 nM | 0.24 | 0.00038 | 100% | 100% | 99% | 109% | 68% | 23.5 ± 2.12 nM | moderate stability | 106% | – |
| CC(O)CN1CCC2(CCN(CC[S+]([O-])C(c3ccc(F)cc3)c3ccc(F)cc3)CC2)C1 (stereo not shown) [RDS04-014] | 449 ± 120 nM | 1.37 | 617 ± 54.8 nM | 0.14 | 0.11 | – | – | – | – | – | – | – | – | – |
